Data as given in patent US7495100B2, “Synthesis of indenoisoquinolines” (Purdue Research Foundation, priority 2004, dated 2009).
Read-outs that look alike come from different tables or passages of the source.

Experiments:
[1] = system: SF-268; assay: NCI screen antiproliferative activity, CNS SF-268; assay type: cell-based, human; settings: concentration corresponding to 50% growth inhibition, read-out: cytotoxicity GI50 CNS SF-268
Experimental: (§1) The indenoisoquinolines described herein were examined for antiproliferative activity against the human cancer cell lines in the National Cancer Institute screen, in which the activity of each compound was evaluated with approximately 55 different cancer cell lines of diverse tumor origins. The MGM is based on a calculation of the average GI50 for all of the cell lines tested (approximately 55) in which GI50 values below and above the test range (10^−8 to 10^−4 molar) are taken as the minimum (10^−8 molar) and maximum (10^−4 molar) drug concentrations used in the screening test. The relative potencies of the compounds described herein in the production of topoisomerase I-mediated DNA cleavage are also listed in Table 1.

[2] = system: DU-145; assay: NCI screen antiproliferative activity, prostate DU-145; assay type: cell-based, human; settings: concentration corresponding to 50% growth inhibition, read-out: cytotoxicity GI50 prostate DU-145
Experimental: as §1

[3] = system: human cancer cell lines in the National Cancer Institute screen; assay: NCI screen mean graph midpoint over approximately 55 cancer cell lines; assay type: cell-based; settings: for MGM (mean graph midpoint for growth inhibition): average GI50 of all human cancer cell lines tested (approximately 55), test range 10^-8 to 10^-4 molar
Experimental: as §1

[4] = system: SN12C; assay: NCI screen antiproliferative activity, renal SN12C; assay type: cell-based, human; settings: concentration corresponding to 50% growth inhibition, read-out: cytotoxicity GI50 renal SN12C
Experimental: as §1

[5] = system: MDA-MB-435; assay: NCI screen antiproliferative activity, breast MDA-MB-435; assay type: cell-based, human; settings: concentration corresponding to 50% growth inhibition, read-out: cytotoxicity GI50 breast MDA-MB-435
Experimental: as §1

[6] = system: HCT-116; assay: NCI screen antiproliferative activity, colon HCT-116; assay type: cell-based, human; settings: concentration corresponding to 50% growth inhibition, read-out: cytotoxicity GI50 colon HCT-116
Experimental: as §1

[7] = system: UACC-62; assay: NCI screen antiproliferative activity, melanoma UACC-62; assay type: cell-based, human; settings: concentration corresponding to 50% growth inhibition, read-out: cytotoxicity GI50 melanoma UACC-62
Experimental: as §1

[8] = system: HOP-62; assay: NCI screen antiproliferative activity, lung HOP-62; assay type: cell-based, human; settings: concentration corresponding to 50% growth inhibition, read-out: cytotoxicity GI50 lung HOP-62
Experimental: as §1

[9] = target: T1, topoisomerase I (top1) (Homo sapiens, UniProt P11387); assay: topoisomerase I-mediated DNA cleavage; assay type: biochemical; design: key: +: weak activity; ++: similar activity as the parent compound 25; +++: greater activity than the parent compound 25; ++++: similar activity as 1 μM camptothecin; settings: tested at concentrations ranging up to 10 μM; semi-quantitative
T1 sequence (P11387 1-765): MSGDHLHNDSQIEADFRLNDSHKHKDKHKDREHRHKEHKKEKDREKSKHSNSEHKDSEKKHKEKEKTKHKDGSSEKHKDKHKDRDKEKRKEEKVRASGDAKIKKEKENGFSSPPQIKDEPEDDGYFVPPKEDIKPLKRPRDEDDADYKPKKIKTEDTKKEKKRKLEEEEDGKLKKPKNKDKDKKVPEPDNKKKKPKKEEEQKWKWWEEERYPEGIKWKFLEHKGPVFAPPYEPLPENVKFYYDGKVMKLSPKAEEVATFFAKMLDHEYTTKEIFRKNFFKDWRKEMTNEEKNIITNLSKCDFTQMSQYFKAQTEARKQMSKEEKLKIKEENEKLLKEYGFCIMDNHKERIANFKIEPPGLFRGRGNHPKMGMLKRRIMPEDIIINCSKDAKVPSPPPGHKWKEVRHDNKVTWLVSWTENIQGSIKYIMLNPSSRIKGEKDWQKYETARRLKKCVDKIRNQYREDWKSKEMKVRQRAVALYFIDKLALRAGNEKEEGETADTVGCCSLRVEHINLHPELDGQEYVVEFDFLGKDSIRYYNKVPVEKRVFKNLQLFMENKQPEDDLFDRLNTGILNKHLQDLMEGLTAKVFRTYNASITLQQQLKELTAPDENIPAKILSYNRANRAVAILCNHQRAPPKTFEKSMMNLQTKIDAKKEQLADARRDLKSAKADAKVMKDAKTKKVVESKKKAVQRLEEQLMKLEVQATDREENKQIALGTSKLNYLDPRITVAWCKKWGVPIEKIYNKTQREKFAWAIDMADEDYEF
Experimental: as §1

[10] = system: OVCAR-3; assay: NCI screen antiproliferative activity, ovarian OVCAR-3; assay type: cell-based, human; settings: concentration corresponding to 50% growth inhibition, read-out: cytotoxicity GI50 ovarian OVCAR-3
Experimental: as §1

[11] = average GI50 of all cell lines tested

| Structure (SMILES) | GI50 [1] | GI50 [2] | activity (MGM) [3, 11] | MGM (mean graph midpoint for growth inhibition) [3] | GI50 [4] | GI50 [5] | GI50 [6] | GI50 [7] | GI50 [8] | Top 1 Cleavage [9] | GI50 [10] | cytotoxicity (MGM) as stated in text [3, 11] | GI50 ([1]; Homo sapiens, SF-268) | GI50 ([2]; Homo sapiens, DU-145) | GI50 ([4]; Homo sapiens, SN12C) | GI50 ([5]; Homo sapiens, MDA-MB-435) | GI50 ([6]; Homo sapiens, HCT-116) | GI50 ([7]; Homo sapiens, UACC-62) | GI50 ([8]; Homo sapiens, HOP-62) | GI50 ([10]; Homo sapiens, OVCAR-3) |
| --- | --- | --- | --- | --- | --- | --- | --- | --- | --- | --- | --- | --- | --- | --- | --- | --- | --- | --- | --- | --- |
| O=C1c2cc3c(cc2C2C1c1ccc([N+](=O)[O-])cc1C(=O)N2CCCBr)OCO3 (racemic) [Compound 12] | < 10 nM | < 10 nM | 16 nm | 0.016 ± 0.003 µM | < 10 nM | < 10 nM | < 10 nM | < 10 nM | < 10 nM | + | < 10 nM |  |  |  |  |  |  |  |  |  |
| O=C1c2cc3c(cc2C2C1c1ccc([N+](=O)[O-])cc1C(=O)N2CCCCl)OCO3 (racemic) [Compound 13] | < 10 nM | < 10 nM | 18 nm | 0.018 ± 0.001 µM | < 10 nM | < 10 nM | < 10 nM | < 10 nM | < 10 nM | + | < 10 nM |  |  |  |  |  |  |  |  |  |
| CN1C(=O)c2cc([N+](=O)[O-])ccc2C2C(=O)c3cc4c(cc3C21)OCO4 (racemic) [Compound 14] | 24 nM | 50 nM |  | 0.105 ± 0.007 µM | 33 nM | 107 nM | 14 nM | 26 nM | 158 nM | +++ | 30 nM |  |  |  |  |  |  |  |  |  |
| O=C1c2cc3c(cc2-c2c1c1ccc([N+](=O)[O-])cc1c(=O)n2CCCCl)OCO3 [Compound 15] | 148 nM | 98 nM |  | 0.832 µM | 132 nM | 1820 nM | 2400 nM | 229 nM | 410 nM | +++ | 9120 nM |  |  |  |  |  |  |  |  |  |
| [N-]=[N+]=NCCCn1c2c(c3ccc([N+](=O)[O-])cc3c1=O)C(=O)c1cc3c(cc1-2)OCO3 [Compound 16] | < 10 nM | < 10 nM |  | 0.098 ± 0.06 µM | < 10 nM | < 10 nM | < 10 nM | < 10 nM | < 10 nM | ++++ | < 10 nM | 98 nM |  |  |  |  |  |  |  |  |
| Cl.Nc1ccc2c3c(n(CCCCl)c(=O)c2c1)-c1cc2c(cc1C3=O)OCO2 [Compound 18] | > 100000 nM |  |  | 25 µM | > 100000 nM | > 100000 nM |  | > 100000 nM |  | 0 | > 100000 nM |  |  |  |  |  |  |  |  |  |
| O=C1c2ccccc2-c2c1c1ccc([N+](=O)[O-])cc1c(=O)n2CCCBr [Compound 20] | > 100000 nM | > 100000 nM |  | 40 µM | > 100000 nM | > 100000 nM | 3450 nM | > 100000 nM |  | 0 | > 100000 nM |  |  |  |  |  |  |  |  |  |
| O=C1c2ccccc2-c2c1c1ccc([N+](=O)[O-])cc1c(=O)n2CCCCl [Compound 22] |  |  |  | 18.2 µM |  |  |  |  |  |  |  |  | 23400 nM | 40700 nM | 26900 nM | 31600 nM | 3630 nM | 20400 nM | 43700 nM | 4900 nM |
| [N-]=[N+]=NCCCn1c2c(c3ccc([N+](=O)[O-])cc3c1=O)C(=O)c1ccccc1-2 [Compound 23] |  |  |  | 13.5 µM |  |  |  |  |  |  |  |  | 79400 nM | > 100000 nM | 72400 nM | > 100000 nM | 8130 nM | 44700 nM | > 100000 nM |  |
| Cl.NCCCn1c2c(c3ccc([N+](=O)[O-])cc3c1=O)C(=O)c1ccccc1-2 [Compound 24] | 302 nM | 148 nM |  | 0.245 µM | 102 nM |  | 85 nM | 372 nM | 275 nM |  |  |  |  |  |  |  |  |  |  |  |
